The values that follow are results of earlier work, collected in US10894805B2, “Prodrugs of the selective progesterone receptor modulator (SPRM) (11β,17β)-17-Hydroxy-11-[4-(methylsulphonyl)phenyl] -17-(pentafluoroethyl)estra-4,9-dien-3-one” (BAYER PHARMA AKTIENGESELLSCHAFT, priority 2016, dated 2021).

The subject of this series is Progesterone receptor. Particulars: DeManno et al., Steroids 68 (2003); cited from earlier work.

For `COC[C@]1(OC)CC[C@H]2[C@@H]3CCC4=CC(=O)CCC4=C3[C@@H](c3ccc(/C=N/O)cc3)C[C@@]21C` [Compound J912], the “Progesterone binding affinity, Relative molar Binding Affinity (RBA)” value is listed as “about 165 % RBA”.
